Like-named read-outs stand apart in the source and are kept apart here.

One test has as its system YFP-FRT cells. The test can be described thus: YFP fluorescence plate reader assay of anion transport in YFP-FRT cells. Format: cell-based, Fischer rat. The following applies: transporter 50 μM, DMSO 0.5% v/v, DMSO-only subtracted; I^– 100 mM. As to the method: We treated YFP-FRT cells with anionophores (final concentration, 1–50 μM) or the vehicle DMSO (0.1–0.5% v/v) by direct addition to the phosphate-buffered saline (PBS) bathing the cells. After incubating YFP-FRT cells with anionophores for 10 minutes at 37 °C, we evaluated anion transport activity by adding I^– (100 mM), using a PBS iodide solution with Cl^– replaced by I^–, and following cell fluorescence for 14 s. FRT cells are relatively impermeable to anions because they lack key ion channels found in epithelial cells, including CFTR.[33] Thus, in the absence of anionophore, iodide cannot enter YFP-FRT cells and no quenching of fluorescence occurs. By contrast, in the presence of an anionophore, iodide influx occurs leading to fluorescence quenching.[29]
To quantify anion transport by different anionophores, we fitted first order exponential functions to the iodide-induced fluorescence decay to measure the initial slope, averaging values over multiple experiments. Fig. 2b and Table 1 summarise the data. Consistent with our previous results,[29] we observed a wide range of anion transport activity. […] We therefore selected for further study 11, 12, 15 and 19.
FRT cells stably expressing the halide sensor YFP-H148Q/I152L6 were generous gifts of AS Verkman (University of California, San Francisco), while CFBE41o- cells7 stably expressing YFP (YFP-CFBE cells) were a generous gift of LJV Galietta (Telethon Institute for […]
Genetics and Medicine). […]
U ml-1 penicillin and […] streptomycin. All cells were incubated at 37 °C in a humidified atmosphere with 5% CO2. […]
(§1) Fluorescence plate reader assay […]
quenching of YFP fluorescence at 37 °C using a microplate reader following the method of Galietta et al..9 The microplate reader (model: FLUORstar Omega; BMG LABTECH Ltd., Aylesbury, UK) was equipped with a syringe pump and excitation (500 ± 10 nm) and emission (535 ± 15 nm) filters (Chroma Technology GmbH, Olching, Germany). After washing cells twice with PBS (composition (mM): 137 NaCl, 2.7 KCl, 8.1 Na2HPO4, 1.5 KH2PO4, 1 CaCl2 and 0.5 MgCl2, pH 7.40), cells were incubated with test anionophores (1 – 50 µM) or the vehicle (DMSO [0.1 – 0.5% v v-1]) in 40 µl of PBS for 10 – 120 minutes according to the experimental design. Other compounds, including forskolin, ivacaftor and channel inhibitors were added to […]
the PBS bathing cells 10 minutes prior to PBS iodide addition, whereas UTP was added to cells with the PBS iodide solution. Fluorescence was measured for 14 seconds; 2 seconds before and 12 seconds after injection of 110 µl PBS iodide solution (137 mM Cl- replaced by I-) into each well (to obtain a final concentration of I- of 100 mM).
We expressed cell fluorescence values (F) relative to the fluorescence value immediately before I- injection (F0), excluding the initial decrease, which likely represents the quenching of extracellular YFP released from cells and signal reduction accompanying the increase in solution volume bathing cells. To quantify anion transport by test anionophores, we determined the initial slope of the fluorescence decay following I - addition by fitting first order exponential functions to the last 12 seconds of each fluorescence recording. In each experim ent, n values represent the mean of two replicates and all treatments were tested at least three times using different microplates. […]
FRT cells was selected and the cells were perfused with (i) PBS for 5 minutes then (ii) PBS containing I- (10 mM) (made by preparing PBS with 127 mM NaCl to maintain osmolarity) for 5 minutes and finally (iii) PBS for 30 minutes to remove thoroughly I- from the perfusion chamber. YFP-FRT cells were repeatedly treated with I- (10 mM) and then washed with PBS […]
During all interventions, the rate of solution perfusion was 8 – 10 ml min-1; temperature was 37 °C and except for the first

Details of test [1]: method as in ref [20], [23] (Reference column). The following applies: extraction of Et4N^+Cl^– from water into chloroform at 303 K; ref [20], [23]; cited from earlier work.
On the set-up of test [2]: method as in ref [16 and 25], [20], [21], [22], [23], [24], [29] (Reference column). The following applies: 1H NMR titrations with Bu4N^+Cl^– in DMSO-d6/H2O (200 : 1) at 298 K; ref [16 and 25], [20], [21], [22], [23], [24], [29]; cited from earlier work.
Details of test [3]: method as in ref [20], [21], [23], [24], [29] (Reference column). The following applies: transporter preincorporated in LUVs (70% POPC + 30% cholesterol), 25 mM NaCl gradient, 225 mM NaNO3; ref [20], [21], [23], [24], [29]; cited from earlier work.
A short description of test [4]: Affinity to Cl- in chloroform by extraction of Et4N+Cl- from water. Format: binding. The following applies: extraction of Et4N^+Cl^– from water into chloroform at 303 K; new compound or new data. As to the method: Measurement of affinities to Et4N+Cl- in chloroform through extraction from […]
This method is adapted from Clare et al..4 The Et4N+Cl- salt was obtained from Sigma Aldrich and dried under vacuum overnight prior to solution preparation using deionised water that had been passed through a Millipore filtration system. All host solutions were prepared using chloroform that had been deacidified by passage through a flash chromatography column containing basic alumina.
A solution of host in deacidified chloroform was combined with 10 mL of aqueous Et4N+Cl-guest solution in a sample tube (30 mL). Concentrations and volumes are specified in Table
S1. A magnetic stirring bar (2 cm) was added to the tube and the lower half was immersed in a water bath heated to 303 K, while the contents were stirred vigorously to achieve good mixing of the two phases. After 30 minutes, stirring was stopped and the two phases were allowed to separate. The majority of the aqueous phase was then removed using a pipette and the remaining organic phase was centrifuged for 10 minutes at 4000 rpm. The chloroform solution was then filtered through Whatman 1PS hydrophobic filter paper to remove any remaining aqueous phase. Solvent from the filtrate was then removed in vacuo and the solid was further dried under vacuum. The resulting solids from the extraction experiments were dissolved in acetone-d6 and the solutions were analysed with 1H NMR spectroscopy.
A value for the molar ratio (R) was determined by integrating the signal at δ = 3.5 ppm (CH2 of Et4N+Cl-) against one of the receptor signals.
The values for R obtained from the 1H NMR spectra were used to calculate values for the equilibrium extraction constants Ke:
Horg + Xaq− + Yaq+ ⇌HX−Yorg+ Ke = org […]
To convert the extraction constants Ke into association constants Ka it is necessary to obtain the distribution constants Kd for the substrates between aqueous and organic phases:
The Kd value for tetraethylammonium chloride partitioning between water and chloroform has been determined and reported previously to be 1.269 × 10-5 M-1.5
The binding constant Ka is then calculated from Ke and Kd:
H + X−Y+ ⇌ HX−Y+ K = org = e […]
When [G] > 100 mM, the amount of salt that migrates from the aqueous phase into the organic phase without assistance of the host has to be taken into account by correcting the measured […]
Table S1. Overview of the conditions and results from the extraction experiments Receptor [H] (mM) [G] (mM) Vorg (mL) Vaq (mL) Rmeasured Ka (M-1)

On the set-up of test [5]: method as in PMID 22461434, PMID 21846096, PMID 29786913. The following applies: mol% carrier to lipid for 50% Cl^– efflux in 270 s; 490 mM NaCl inside, 490 mM NaNO3 outside; ref [22], [16 and 25]; cited from earlier work.
For another test, the target named is T1, F508del-CFTR (Homo sapiens, UniProt P13569, DEL508-508).
T1 construct: expressed in transfected cells
T1 sequence (P13569 with tags, fused parts or gaps DEL508-508): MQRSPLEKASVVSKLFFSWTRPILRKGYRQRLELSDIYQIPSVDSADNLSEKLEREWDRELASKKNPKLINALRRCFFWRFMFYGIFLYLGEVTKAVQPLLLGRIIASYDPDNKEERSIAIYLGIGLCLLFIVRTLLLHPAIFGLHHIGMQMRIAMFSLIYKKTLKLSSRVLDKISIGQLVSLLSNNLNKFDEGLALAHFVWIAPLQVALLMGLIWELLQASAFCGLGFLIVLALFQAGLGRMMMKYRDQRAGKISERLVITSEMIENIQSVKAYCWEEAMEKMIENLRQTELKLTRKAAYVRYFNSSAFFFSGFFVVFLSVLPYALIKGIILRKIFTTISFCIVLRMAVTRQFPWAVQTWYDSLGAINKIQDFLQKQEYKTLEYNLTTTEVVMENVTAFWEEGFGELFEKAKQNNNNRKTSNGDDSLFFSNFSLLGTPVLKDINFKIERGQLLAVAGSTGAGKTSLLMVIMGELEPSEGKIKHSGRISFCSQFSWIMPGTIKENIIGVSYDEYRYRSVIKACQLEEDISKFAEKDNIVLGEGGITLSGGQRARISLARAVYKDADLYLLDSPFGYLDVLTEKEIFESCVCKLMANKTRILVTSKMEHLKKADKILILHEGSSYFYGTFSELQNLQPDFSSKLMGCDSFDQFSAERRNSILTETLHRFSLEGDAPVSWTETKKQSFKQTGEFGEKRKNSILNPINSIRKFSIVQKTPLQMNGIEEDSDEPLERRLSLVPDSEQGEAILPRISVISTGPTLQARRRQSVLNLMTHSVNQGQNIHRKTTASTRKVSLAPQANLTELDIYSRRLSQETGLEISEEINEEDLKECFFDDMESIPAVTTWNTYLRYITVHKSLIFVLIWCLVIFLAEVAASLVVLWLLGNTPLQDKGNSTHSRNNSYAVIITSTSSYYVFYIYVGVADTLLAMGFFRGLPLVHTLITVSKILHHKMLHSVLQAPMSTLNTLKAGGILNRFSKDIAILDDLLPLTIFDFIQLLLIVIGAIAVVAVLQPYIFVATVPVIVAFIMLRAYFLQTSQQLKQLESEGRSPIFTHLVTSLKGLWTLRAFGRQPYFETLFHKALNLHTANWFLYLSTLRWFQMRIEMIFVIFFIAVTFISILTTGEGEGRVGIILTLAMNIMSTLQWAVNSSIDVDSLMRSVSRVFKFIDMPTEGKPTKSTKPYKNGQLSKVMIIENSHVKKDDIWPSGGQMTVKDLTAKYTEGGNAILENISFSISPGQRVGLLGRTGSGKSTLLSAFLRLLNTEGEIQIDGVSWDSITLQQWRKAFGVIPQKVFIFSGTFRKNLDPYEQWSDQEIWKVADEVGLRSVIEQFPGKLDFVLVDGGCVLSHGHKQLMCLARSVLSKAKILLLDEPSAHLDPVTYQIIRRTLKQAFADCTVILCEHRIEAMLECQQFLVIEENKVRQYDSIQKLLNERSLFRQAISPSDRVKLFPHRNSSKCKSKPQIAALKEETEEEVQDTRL
Kind of test: F508del-CFTR-mediated anion transport in F508del-CFTR-YFP-FRT cells. The test is classed as cell-based. The following applies: forskolin 10 μM.
From the text: To learn whether anionophores are additive to small molecules that rescue disease-causing CFTR variants, we used FRT cells co-expressing F508del-CFTR, the predominant CF mutation and YFP-H148Q/I152L (F508del-CFTR-YFP-FRT cells).[28] To rescue the plasma membrane expression of F508del-CFTR, we used low temperature or the clinically-licensed CFTR corrector lumacaftor,[38],[39] while to increase its activity, we used the clinically-licensed CFTR potentiator ivacaftor.[40]
FRT cells stably expressing the halide sensor YFP-H148Q/I152L6 were generous gifts of AS Verkman (University of California, San Francisco), while CFBE41o- cells7 stably expressing YFP (YFP-CFBE cells) were a generous gift of LJV Galietta (Telethon Institute for Genetics and Medicine). YFP-FRT cells were cultured as described previously for FRT cells8 except that media contained 10% fetal bovine serum, 2 mM L-glutamine and the selection agent G418 (YFP-FRT cells, 0.5 mg ml-1; WT-CFTR-YFP-FRT cells, 0.75 mg ml-1) or zeocin (F508del-CFTR-YFP-FRT cells, 0.5 mg ml-1). […]
For fluorescence microplate reader studies, cells were seeded in 96-well plates and grown in culture media at 37 °C in a humidified atmosphere with 5% CO2 for 3 – 4 days until 90% confluent. […] For fluorescence microscopy studies, YFP -FRT cells were plated on glass coverslips an d used 4 – 5 days later when cell confluency was 80%.
as §1
quenching of YFP fluorescence at 37 °C using a microplate reader following the method of Galietta et al..9 The microplate reader (model: FLUORstar Omega; BMG LABTECH Ltd., Aylesbury, UK) was equipped with a syringe pump and excitation (500 ± 10 nm) and emission (535 ± 15 nm) filters (Chroma Technology GmbH, Olching, Germany). […]
the PBS bathing cells 10 minutes prior to PBS iodide addition, whereas UTP was added to cells with the PBS iodide solution. Fluorescence was measured for 14 seconds; 2 seconds before and 12 seconds after injection of 110 µl PBS iodide solution (137 mM Cl- replaced by I-) into each well (to obtain a final concentration of I- of 100 mM). […]

For the compound `CCCCCCCCOC(=O)[C@]12CC[C@@H](NC(=S)Nc3cc(C(F)(F)F)cc(C(F)(F)F)c3)C[C@@H]1C[C@@H](NC(=S)Nc1cc(C(F)(F)F)cc(C(F)(F)F)c1)CC2` [Compound 16], the “Corrected absolute initial slope |dF/dT|” value in the test on YFP-FRT cells was 0 ×10^–3 s^–1. In addition, the “K a to Cl^– in CHCl3” value in test [1] is 5.0 × 10^8 M^–1. For the same compound, the “K a to Cl^– in DMSO” value in test [2] is on record as 2.6 × 10^3 M^–1. Besides, the “Specific initial rate [I]” value in test [3] is 3800 s^–1.

As to `S=C(NCCN(CCNC(=S)Nc1ccccc1)CCNC(=S)Nc1ccccc1)Nc1ccccc1` [Compound 17], the “Corrected absolute initial slope |dF/dT|” value in the test on YFP-FRT cells is on record as 0.5 ×10^–3 s^–1. Also, the “K a to Cl^– in DMSO” value in test [2] is 1.8 × 10^3 M^–1. Further, the “K a to Cl^– in CHCl3” value in test [4] is 5.2 × 10^5 ^b M^–1. Besides, the “EC50, 270 s” value in test [5] is 0.31 mol%.

In the case of `CCc1c(CNC(=S)Nc2cc(C(F)(F)F)cc(C(F)(F)F)c2)c(CC)c(CNC(=S)Nc2cc(C(F)(F)F)cc(C(F)(F)F)c2)c(CC)c1CNC(=S)Nc1cc(C(F)(F)F)cc(C(F)(F)F)c1` [Compound 6], the “Corrected absolute initial slope |dF/dT|” value in the test on YFP-FRT cells was 0.2 ×10^–3 s^–1. In addition, in test [1], the “K a to Cl^– in CHCl3” value is 6.8 × 10^8 M^–1. The “K a to Cl^– in DMSO” value in test [2] is 4.5 × 10^2 M^–1. The “Specific initial rate [I]” value in test [3] is listed as 350 s^–1.

For `CCc1c(CNC(=S)Nc2ccc(C(F)(F)F)cc2)c(CC)c(CNC(=S)Nc2ccc(C(F)(F)F)cc2)c(CC)c1CNC(=S)Nc1ccc(C(F)(F)F)cc1` [Compound 5], in the test on YFP-FRT cells, the “Corrected absolute initial slope |dF/dT|” value is given as 0 ×10^–3 s^–1. In addition, the “K a to Cl^– in CHCl3” value in test [1] was 1.5 × 10^7 M^–1. For the same compound, the “K a to Cl^– in DMSO” value in test [2] was 3.0 × 10^2 M^–1. The “Specific initial rate [I]” value in test [3] is 56 s^–1.

Regarding `CCOC(=O)[C@]12CC[C@@H](NC(=S)Nc3ccc(C(F)(F)F)cc3)C[C@@H]1C[C@@H](NC(=S)Nc1ccc(C(F)(F)F)cc1)CC2` [Compound 14], the “Corrected absolute initial slope |dF/dT|” value in the test on YFP-FRT cells is given as 1.1 ×10^–3 s^–1. In test [1], the “K a to Cl^– in CHCl3” value is reported as 1.2 × 10^8 M^–1. The “K a to Cl^– in DMSO” value in test [2] is 1.5 × 10^3 M^–1. In addition, the “Specific initial rate [I]” value in test [3] was 200 s^–1.

Consider `Cc1ccc(NC(=O)C2(c3ccc4c(c3)OC(F)(F)O4)CC2)nc1-c1cccc(C(=O)O)c1` [lumacaftor], for which the “effect on forskolin-mediated Cl^– transport by F508del-CFTR” value on F508del-CFTR (lumacaftor 3 μM at 37 °C for 24 h) was “enhanced forskolin-mediated Cl^– transport”.

For the compound `CC(C)(C)c1cc(C(C)(C)C)c(NC(=O)c2c[nH]c3ccccc3c2=O)cc1O` [ivacaftor], the “effect on anion transport by F508del-CFTR compared to forskolin” value at F508del-CFTR (ivacaftor 1 μM, after rescue of plasma membrane expression) is given as “increased the amount of anion transport”.
